Experiments:
NKG2A+/NKG2C− NK cells = assay: NK cell activation markers in NKG2A+/NKG2C- NK cells incubated with peptide and K562 expressing HLA-E (inhibition); type: cell-based, human; conditions: for percentage of CCL3+ NK cells / percentage of CD107a+ NK cells / percentage of IFNG+ NK cells / percentage of TNF+ NK cells: NKG2A+/NKG2C- NK cells, K562/HLA-E
Procedure: (§1) A human immortalized myelogenous leukemia cell line (K562), which expresses HLA-E was incubated with novel peptides (Table 1) derived from the human proteome or human cytomegalovirus proteome. […] Controls assessments were also performed using NKG2A−/NKG2C− cells (Tables 10-13). Inhibition was indicated by a decrease in percent cells positive for cell surface markers, while activation was indicated by an increase in percent cells positive for cell surface markers.

NKG2A−/NKG2C+ NK cells = assay: NK cell activation markers in NKG2A-/NKG2C+ NK cells incubated with peptide and K562 expressing HLA-E (activation); type: cell-based, human; conditions: for percentage of CCL3+ NK cells / percentage of CD107+ NK cells / percentage of IFNG+ NK cells / percentage of TNF+ NK cells: NKG2A-/NKG2C+ NK cells, K562/HLA-E
Procedure: as §1

NKG2A−/NKG2C− NK cells = assay: NK cell activation markers in control NKG2A-/NKG2C- NK cells incubated with peptide and K562 expressing HLA-E; type: cell-based, human
Procedure: as §1

HLA-E = target: T1, HLA-E (Homo sapiens, UniProt P13747); assay: HLA-E surface stabilization assay with RMA-S/HLA-E cells; type: cell-based; conditions: 30 μM peptide, 16 hours; for HLA-E surface expression stability (GeoMFI): anti-HLA-E antibody
T1 construct: expressed in transfected cells; host or cells: RMA-S/HLA-E cells (antigen processing-defective lymphoma cell line)
Procedure: HLA-E surface expression was assessed by measuring geometric mean fluorescence intensity (GeoMFI) in RMA-S cells following immunofluorescence staining with an anti-HLA-E antibody (Table 14). Increased GeoMFI was indicative of increased HLA-E surface expression stability following novel peptide exposures (FIG. 3).

[1] = K562 expressing HLA-E, CD107a, IFNG, TNF, CCL3

HLA-E surface expression stability (GeoMFI) (HLA-E; Trial 1): 1066 GeoMFI | HLA-E surface expression stability (GeoMFI) (HLA-E; Trial 2): 813 GeoMFI | HLA-E surface expression stability (GeoMFI) (HLA-E; Trial 3): 1049 GeoMFI | HLA-E surface expression stability (GeoMFI) (HLA-E; Trial 4): 1654 GeoMFI | HLA-E surface expression stabilization strength, approximate GeoMFI (HLA-E; approximate value): approximately 1×10^3 GeoMFI
Sequence: FLPNRSLLF [human8, peptide SLC52A3 354-362 derived from the human proteome]
effect on NKG2A+/NKG2C− NK cell inhibition (in words) (NKG2A+/NKG2C− NK cells; [1]): mild inhibitory effects | percentage of CCL3+ NK cells (NKG2A+/NKG2C− NK cells; Trial 1): 39.5% | percentage of CD107a+ NK cells (NKG2A+/NKG2C− NK cells; Trial 1): 19.1% | percentage of IFNG+ NK cells (NKG2A+/NKG2C− NK cells; Trial 1): 5.56% | percentage of TNF+ NK cells (NKG2A+/NKG2C− NK cells; Trial 1): 1.84% | percentage of CCL3+ NK cells (NKG2A+/NKG2C− NK cells; Trial 2): 56% | percentage of CD107a+ NK cells (NKG2A+/NKG2C− NK cells; Trial 2): 26.4% | percentage of IFNG+ NK cells (NKG2A+/NKG2C− NK cells; Trial 2): 10.5% | percentage of TNF+ NK cells (NKG2A+/NKG2C− NK cells; Trial 2): 4.8% | percentage of CCL3+ NK cells (NKG2A+/NKG2C− NK cells; Trial 3): 38.2% | percentage of CD107a+ NK cells (NKG2A+/NKG2C− NK cells; Trial 3): 27.5% | percentage of IFNG+ NK cells (NKG2A+/NKG2C− NK cells; Trial 3): 14.7% | percentage of TNF+ NK cells (NKG2A+/NKG2C− NK cells; Trial 3): 6.96% | percentage of CCL3+ NK cells (NKG2A+/NKG2C− NK cells; Trial 4): 32.8% | percentage of CD107a+ NK cells (NKG2A+/NKG2C− NK cells; Trial 4): 28.2% | percentage of IFNG+ NK cells (NKG2A+/NKG2C− NK cells; Trial 4): 12.7% | percentage of TNF+ NK cells (NKG2A+/NKG2C− NK cells; Trial 4): 7.59% | percentage of CCL3+ NK cells (NKG2A+/NKG2C− NK cells; Trial 5): 33.3% | percentage of CD107a+ NK cells (NKG2A+/NKG2C− NK cells; Trial 5): 17.7% | percentage of IFNG+ NK cells (NKG2A+/NKG2C− NK cells; Trial 5): 7.1% | percentage of TNF+ NK cells (NKG2A+/NKG2C− NK cells; Trial 5): 3.6% | percentage of CCL3+ NK cells (NKG2A+/NKG2C− NK cells; Trial 6): 27.1% | percentage of CD107a+ NK cells (NKG2A+/NKG2C− NK cells; Trial 6): 20% | percentage of IFNG+ NK cells (NKG2A+/NKG2C− NK cells; Trial 6): 6.74% | percentage of TNF+ NK cells (NKG2A+/NKG2C− NK cells; Trial 6): 4.07% | effect on NKG2A−/NKG2C+ NK cell activation (in words) (NKG2A−/NKG2C+ NK cells; [1]): strong activating effects | percentage of CCL3+ NK cells (NKG2A−/NKG2C+ NK cells; Trial 1): 75.5% | percentage of CD107+ NK cells (NKG2A−/NKG2C+ NK cells; Trial 1): 73.7% | percentage of IFNG+ NK cells (NKG2A−/NKG2C+ NK cells; Trial 1): 58.6% | percentage of TNF+ NK cells (NKG2A−/NKG2C+ NK cells; Trial 1): 45.1% | percentage of CCL3+ NK cells (NKG2A−/NKG2C+ NK cells; Trial 2): 89% | percentage of CD107+ NK cells (NKG2A−/NKG2C+ NK cells; Trial 2): 82.1% | percentage of IFNG+ NK cells (NKG2A−/NKG2C+ NK cells; Trial 2): 74.8% | percentage of TNF+ NK cells (NKG2A−/NKG2C+ NK cells; Trial 2): 64% | percentage of CCL3+ NK cells (NKG2A−/NKG2C+ NK cells; Trial 3): 84.1% | percentage of CD107+ NK cells (NKG2A−/NKG2C+ NK cells; Trial 3): 84.3% | percentage of IFNG+ NK cells (NKG2A−/NKG2C+ NK cells; Trial 3): 74.5% | percentage of TNF+ NK cells (NKG2A−/NKG2C+ NK cells; Trial 3): 63.7% | percentage of CCL3+ NK cells (NKG2A−/NKG2C+ NK cells; Trial 4): 65.3% | percentage of CD107+ NK cells (NKG2A−/NKG2C+ NK cells; Trial 4): 64.8% | percentage of IFNG+ NK cells (NKG2A−/NKG2C+ NK cells; Trial 4): 54% | percentage of TNF+ NK cells (NKG2A−/NKG2C+ NK cells; Trial 4): 43.7% | percentage of CCL3+ NK cells (NKG2A−/NKG2C+ NK cells; Trial 5): 74.6% | percentage of CD107+ NK cells (NKG2A−/NKG2C+ NK cells; Trial 5): 70.7% | percentage of IFNG+ NK cells (NKG2A−/NKG2C+ NK cells; Trial 5): 62.3% | percentage of TNF+ NK cells (NKG2A−/NKG2C+ NK cells; Trial 5): 57.1% | percentage of CCL3+ NK cells (NKG2A−/NKG2C+ NK cells; Trial 6): 57% | percentage of CD107+ NK cells (NKG2A−/NKG2C+ NK cells; Trial 6): 53.1% | percentage of IFNG+ NK cells (NKG2A−/NKG2C+ NK cells; Trial 6): 43.8% | percentage of TNF+ NK cells (NKG2A−/NKG2C+ NK cells; Trial 6): 31.7% | percentage CCL3+ NK cells (NKG2A−/NKG2C− NK cells; Trial 1): 33.5% | percentage CD107+ NK cells (NKG2A−/NKG2C− NK cells; Trial 1): 27.7% | percentage TNF+ NK cells (NKG2A−/NKG2C− NK cells; Trial 1): 4.82% | percentage of IFNG+ NK cells (NKG2A−/NKG2C− NK cells; Trial 1): 14.7% | percentage CCL3+ NK cells (NKG2A−/NKG2C− NK cells; Trial 2): 60.3% | percentage CD107+ NK cells (NKG2A−/NKG2C− NK cells; Trial 2): 36.2% | percentage TNF+ NK cells (NKG2A−/NKG2C− NK cells; Trial 2): 10.5% | percentage of IFNG+ NK cells (NKG2A−/NKG2C− NK cells; Trial 2): 28.8% | percentage CCL3+ NK cells (NKG2A−/NKG2C− NK cells; Trial 3): 52.4% | percentage CD107+ NK cells (NKG2A−/NKG2C− NK cells; Trial 3): 47.3% | percentage TNF+ NK cells (NKG2A−/NKG2C− NK cells; Trial 3): 16.5% | percentage of IFNG+ NK cells (NKG2A−/NKG2C− NK cells; Trial 3): 38% | percentage CCL3+ NK cells (NKG2A−/NKG2C− NK cells; Trial 4): 32% | percentage CD107+ NK cells (NKG2A−/NKG2C− NK cells; Trial 4): 28.6% | percentage TNF+ NK cells (NKG2A−/NKG2C− NK cells; Trial 4): 9.61% | percentage of IFNG+ NK cells (NKG2A−/NKG2C− NK cells; Trial 4): 18.6% | percentage CCL3+ NK cells (NKG2A−/NKG2C− NK cells; Trial 5): 29.2% | percentage CD107+ NK cells (NKG2A−/NKG2C− NK cells; Trial 5): 20.2% | percentage TNF+ NK cells (NKG2A−/NKG2C− NK cells; Trial 5): 6.07% | percentage of IFNG+ NK cells (NKG2A−/NKG2C− NK cells; Trial 5): 14.2% | percentage CCL3+ NK cells (NKG2A−/NKG2C− NK cells; Trial 6): 24.8% | percentage CD107+ NK cells (NKG2A−/NKG2C− NK cells; Trial 6): 19.3% | percentage TNF+ NK cells (NKG2A−/NKG2C− NK cells; Trial 6): 3.78% | percentage of IFNG+ NK cells (NKG2A−/NKG2C− NK cells; Trial 6): 10.9%
